Reference: US5231091A, “Bis-arylphosphate ester antagonists of platelet activating factor” (priority 1992, dated 1993)
Where a name gives a salt, the structure may show the parent alone.

Tests used:
PAF receptor [1] = target: T1, PAF receptor (Oryctolagus cuniculus, UniProt G1TEI7); test: Inhibition of PAF-induced aggregation in rabbit platelet rich plasma; format: cell-based, rabbit (male New Zealand White); details: rabbit platelet rich plasma; PAF challenge 5E-8M; number of experiments in parentheses; read-out: IC50 inhibition of PAF-induced aggregation
T1 construct: endogenous in cells; host or cells: rabbit platelets (male New Zealand White)
Method: (§1) Test compounds were evaluated as PAF receptor antagonists in vitro by measuring inhibition of PAF (platelet activating factor) induced platelet aggregation. Platelet aggregation was measured by a modification of the method described in A. Wissner, et. al., J. Med. Chem., 27, 1174, 1984.
Approximately 120-240 ml of blood were collected by cardiac puncture from unanesthetized male New Zealand White rabbits (Whaley's Summit View Farms, Belvedere, N.J.) with the use of 3.2% sodium citrate anticoagulant (1 part of citrate/10 parts of blood). All syringes and pipets were plastic. The blood was gently mixed and immediately centrifuged at 800 rpm for 10-15 minutes at room temperature to recover the platelet rich plasma (PRP). Platelet poor plasma (PPP) was prepared by centrifuging PRP at 2800 rpm for 10 minutes at room temperature.
Dilutions (1:3000) of PRP in Isoton® diluent were made and platelet counts were determined on a Coulter Thrombocounter which was standardized with platelet reference standards (Interscience Platelet Control, Portland, Oreg.). PRP platelet counts were adjusted to approximately 400,000-500,000 platelets/μl by the addition of PPP.
(§2) L-PAF was obtained from Calbiochem. A stock solution of 1-2 E-3M was prepared in 10% ethanol in water or 100% methanol and serial working dilutions were made using phosphate buffered saline (PBS). 1-2 E-3M stock solutions of test compounds were prepared in 100% methanol and serially diluted in PBS. All solutions were made up in plastic tubes, stored on ice and protected from heat and light. Solutions were prepared fresh or frozen at -20° C. and used within 48 hours.
(§3) Incubation mixtures consisted of 400 μl PRP, 50 μl of PBS diluent or test compound and 50 μl of PAF agonist. More specifically, 400 μl of PRP was stabilized in a cuvette for 1-2 minutes at 37° C. in the aggregometer to achieve a stable baseline, then 50 μl of PBS or test compound, was added and incubated for 5 minutes before addition of the challenge concentration of PAF (final concentration of 5E-8M or 1E-7M, as determined from the dose response curve for PAF for that experiment). Aggregation was monitored for 5 minutes. Samples containing test compound or diluent were run simultaneously for comparison. Test compounds were initially evaluated at a screening concentration of 1E-5M.
(§4) The recording equipment consisted of a dual channel Chronolog aggregometer connected to a dual channel 10 MV full scale deflection Omniscribe chart recorder (Houston Instruments). […] The bead suspension was used to set the 0% light transmission mark and clear water was used to set the 100% light transmission mark. These limits defined a full scale deflection. The aggregation traces were analyzed by a digitizing method (C. Kohler and B. Zoltan, J. Pharm. Methods, 12, 113, 1984) with x, y coordinate data stored in a computer file. A suitable program computed parameters of interest such as the magnitude of aggregation.

PAF receptor [2] = target: T2, PAF receptor (Homo sapiens, UniProt P25105); test: Inhibition of PAF-induced aggregation in human platelet rich plasma; format: cell-based; details: PAF challenge 1E-6M, number of experiments in parentheses
T2 construct: Blood from healthy volunteers was collected; endogenous in cells; host or cells: human platelets (healthy volunteers)
Method: as §1, §2, §3, §4
In some experiments, human PRP was used instead of rabbit PRP. Blood from healthy volunteers was collected in Vacutainers® containing the Na citrate diluent and processed in a manner similar to rabbit blood to obtain the PRP. For these experiments, the challenge concentration of PAF was 1E-6M.

PAF induced lethality = PAF induced lethality in mice; format: in vivo; details: corrected for control lethality
Method: PAF given I.V. to mice causes an immediate hypotensive shock leading to death in 1 hour or less. Compounds were given intraperitoneally or P.O. at various times before the PAF challenge. Animals alive after 2 hours were counted and the activity of test compounds expressed as % survival corrected for any control (saline treated) animals which survived the PAF challenge.

[3] = tested on: endotoxin induced mortality; test: Endotoxin induced shock and mortality in mice; format: in vivo, mouse (male Balb/c)
Source text: The test compounds (PAF antagonists) were also efficacious when administered iv prior to a lethal iv injection of endotoxin (Table IX).

PAF induced skin lesions = test: Guinea pig vascular permeability (skin lesion) model; format: in vivo, guinea pig (Hartley)
LPS induced hypotension = test: Endotoxin (LPS) induced hypotension in rats; format: in vivo, rat (male Wistar); details: anesthetized rats; 10 ug/kg intraarterially 5 minutes after LPS 15 mg/kg I.V.
Method: Bacterial cell wall lipopolysaccharide from E. coli strain 0111:B4 (Sigma #L-2630) was dissolved in saline at a concentration of 3.75 mg/ml and administered to rats at 15 mg/kg I.V. Test compounds were dissolved in saline at 1 mg/ml, diluted to 10 ug/ml, and injected intraarterially at 1 ml/kg (10 ug/kg). Male wistar strain rats were obtained from Charles River Labs and maintained according to ALAC standards. They were anesthetized with 30 mg/kg pentobarbital ip with supplementation as needed. The throat was opened, the left carotid artery was cannulated with PE-10 tubing and the trachea cannulated with 0.100 O.D. tubing. Ventilation was maintained by a Harvard Apparatus small animal pump at a rate sufficient to nearly abolish spontaneous respiration.

PAF receptor [4] = target: T1, PAF receptor; test: Inhibition of PAF-induced aggregation in washed rabbit platelets; format: cell-based; details: PAF challenge 5E-9M, number of experiments in parentheses
Method: as §1, §2
as §3, with “More” for “Incubation mixtures consisted of 400 μl PRP, 50 μl of PBS diluent or test compound and 50 μl of PAF agonist. More”, “400 μl of PRP was stabilized in a cuvette” left out, “1E-5M. […]” for “1E-5M.”

[5] = 10 mg/kg IP 2 hours prior to IP endotoxin
[6] = footnote c: I.P. 4 mg/kg 1 hour before PAF

T2 sequence (P25105 whole entry): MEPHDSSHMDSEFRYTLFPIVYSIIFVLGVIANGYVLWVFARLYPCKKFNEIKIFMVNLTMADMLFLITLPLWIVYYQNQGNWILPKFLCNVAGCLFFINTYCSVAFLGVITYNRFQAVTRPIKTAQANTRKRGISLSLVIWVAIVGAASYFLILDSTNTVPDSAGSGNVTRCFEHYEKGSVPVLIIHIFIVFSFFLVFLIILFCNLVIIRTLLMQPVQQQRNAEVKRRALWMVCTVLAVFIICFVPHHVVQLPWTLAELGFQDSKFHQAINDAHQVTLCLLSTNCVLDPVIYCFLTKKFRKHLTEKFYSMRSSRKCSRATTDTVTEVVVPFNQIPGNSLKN
T1 sequence (G1TEI7 1-342): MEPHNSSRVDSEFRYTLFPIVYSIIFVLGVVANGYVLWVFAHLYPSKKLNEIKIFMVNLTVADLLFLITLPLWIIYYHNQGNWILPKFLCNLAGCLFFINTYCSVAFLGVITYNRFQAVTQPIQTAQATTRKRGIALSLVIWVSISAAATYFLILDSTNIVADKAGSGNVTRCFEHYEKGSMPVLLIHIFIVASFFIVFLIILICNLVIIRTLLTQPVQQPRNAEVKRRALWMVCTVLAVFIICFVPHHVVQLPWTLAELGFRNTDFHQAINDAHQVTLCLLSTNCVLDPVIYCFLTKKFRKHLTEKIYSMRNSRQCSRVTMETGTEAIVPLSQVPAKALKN

SMILES: CCCCCCCCCCCCOc1cc(C(C)(C)C)c(OP(=O)([O-])Oc2cccc(C[n+]3cccc4ccccc43)c2)cc1C(C)(C)C [1-[[3-[[[2,5-Bis(1,1-dimethylethyl)-4-(dodecyloxy)phenoxy] hydroxyphosphinyl]oxy]phenyl]methyl]quinolinium, hydroxide, inner salt]
- IC50 (PAF receptor [1]): 1.36 µM
- IC50 (PAF receptor [2]): 47.5 µM

SMILES: CCCCCCCCCCCCCCOc1cccc(OP(=O)([O-])Oc2cccc(C[n+]3ccsc3)c2)c1OC [3-[[3-[[Hydroxy]2-methoxy-3-(tetradecyloxy)phenoxy]-phosphinyl]oxy]phenyl]methyl]-thiazolium, hydroxide inner salt]
- IC50 (PAF receptor [1]): 7.5 µM
- IC50 (PAF receptor [2]): 26.4 µM
- PAF induced lethality, % protection (PAF induced lethality; I.P. 10 mg/kg): 12%
- 24 hour survival, treated [3, 5]: 7/30
- 24 hour survival, treated ([3]; 30 mg/kg IP 2 hours prior to IP endotoxin, control 4/50): 12/50
- Survival after 24 hrs., treated ([3]; Table IX, 10 mg/kg iv prior to iv endotoxin, footnote prints IP, control 0/20): 4/20
- PAF induced skin lesions, % of control (PAF induced skin lesions; [6]): 75%
- % reversal of LPS induced hypotension (fall in mean arterial pressure) (LPS induced hypotension): 89%

SMILES: CCCCCCCCCCCCOc1cc(C(C)(C)C)c(OP(=O)([O-])Oc2cccc(C[n+]3ccsc3)c2)cc1C(C)(C)C [3-[[3-[[[2,5-Bis(1,1-dimethylethyl)-4-(dodecyloxy)phenoxy]hydroxyphosphinyl]oxy]phenyl]methyl]thiazolium, hydroxide, inner salt]
- IC50 (PAF receptor [2]): 1.93 µM
- PAF induced lethality, % protection (PAF induced lethality; [6]): 27%
- 24 hour survival, treated [3, 5]: 4/20
- 24 hour survival, treated ([3]; 20 mg/kg IP 2 hours prior to IP endotoxin): 6/20
- 24 hour survival, treated ([3]; 40 mg/kg IP 2 hours prior to IP endotoxin): 6/20
- PAF induced skin lesions, % of control (PAF induced skin lesions; footnote d: P.O. 5 mg/kg 4 hours before PAF): 49%
- IC50 (PAF receptor [4]): 0.00212 µM

SMILES: CCCCCCCCCCCCCCCCOc1cccc(OP(=O)([O-])Oc2cccc(C[n+]3ccsc3)c2)c1C [3-[[3-[[[3-(Hexadecyloxy)-2-methylphenoxy]hydroxyphosphinyl]oxy]phenyl]methyl]-thiazolium, hydroxide, inner salt]
- IC50 (PAF receptor [1]): 2.65 µM
- IC50 (PAF receptor [2]): 0.119 µM

SMILES: CCCCCCCCCCCCCCCCOc1cccc(OP(=O)([O-])Oc2cccc(C[n+]3ccsc3)c2)c1 [3-[[3-[[[3-(Hexadecyloxy)phenoxy]hydroxyphosphinyl]-oxy]phenyl]methyl]-thiazolium, hydroxide, inner salt]
- IC50 (PAF receptor [1]): 2.13 µM
- IC50 (PAF receptor [2]): 2.5 µM
